Assay results reported in patent US20050084914A1, “Assays with primary cells” (priority 2003, published 2005).

Columns and labels:
PPARγ = target: T1, PPARγ (Homo sapiens, UniProt P37231); experiment: PPARγ activity assay based on PEPCK expression in primary pre-adipocytes on coded carriers; settings: four donor samples (visceral and subcutaneous pre-adipocytes), shared fluid volume, four days
T1 sequence (P37231 1-505): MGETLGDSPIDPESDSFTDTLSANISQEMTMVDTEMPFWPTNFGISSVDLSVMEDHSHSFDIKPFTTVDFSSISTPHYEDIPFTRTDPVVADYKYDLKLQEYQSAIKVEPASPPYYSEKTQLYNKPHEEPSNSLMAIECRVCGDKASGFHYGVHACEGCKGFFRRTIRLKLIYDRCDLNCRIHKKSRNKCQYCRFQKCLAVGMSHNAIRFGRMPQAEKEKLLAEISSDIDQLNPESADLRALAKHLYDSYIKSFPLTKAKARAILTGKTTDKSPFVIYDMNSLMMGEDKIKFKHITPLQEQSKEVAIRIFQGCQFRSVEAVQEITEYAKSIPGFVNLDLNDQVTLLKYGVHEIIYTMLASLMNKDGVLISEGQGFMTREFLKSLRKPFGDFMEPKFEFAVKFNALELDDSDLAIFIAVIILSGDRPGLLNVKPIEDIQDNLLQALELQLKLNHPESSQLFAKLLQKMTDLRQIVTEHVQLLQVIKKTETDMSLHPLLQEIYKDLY
Text: This differentiation may be visualized readily and scored by staining lipid droplets that accumulate in the cytoplasm of the adipocytes during and/or after their differentiation. Furthermore, this adipocyte differentiation and/or activation of PPARγ may be followed by measuring the expression levels (RNA and/or protein) of PPARγ target genes (direct or indirect targets), such as PEPCK (phosphoenolpyruvate carboxykinsae) and/or FABP4 (fatty acid binding protein 4), among others.
Staining was via indirect immunofluorescence. Cells were counterstained with a nuclear dye (Hoechst) for data normalization, here and in other assays. […] Each sample of primary cells corresponds to pre-adipocytes isolated from visceral tissue (samples starting with the letter “V”) or isolated from subcutaneous tissue (samples starting with the letters “SC”) and were supplied by Cambrex. […] Each sample was connected to a distinct class of coded carriers (having a distinct code) to permit identification of the sample after combining the different classes of carrier and samples in a shared volume. […] Lipid accumulation and PEPCK expression were then measured with the samples still disposed in the same microplate wells. […]

[1] = system: primary human renal proximal tubule epithelial (HRPTE) cells; experiment: proliferative response of primary HRPTE cells (S-phase index); format: cell-based; settings: HRPTE cells in 96-well microplate wells or on coded carriers; various concentrations
Procedure: This example describes how multiplexed analysis using coded carriers may be used to assay the effects of camptothecin on the proliferative response of primary human renal proximal tubule epithelial (HRPTE) cells, in accordance with aspects of the present teachings; see FIG. 6.
Specifically, HRPTE cells are grown directly in wells of a standard 96-well microplate, to three different cell densities (indicated as the stated number of cells), or on coded carriers that optionally may be placed in wells of the microplate. An “S-phase index” (e.g., the fraction of cells in the S-phase of the cell cycle) is used as a measure of cell proliferation. […] This reduction may be particularly significant in assays on primary cells, because primary cells typically are difficult to obtain and maintain.

HRPTE cells = experiment: cytotoxicity response of HRPTE cells (death index, live/dead assay); format: cell-based, human; settings: HRPTE cells in 96-well microplate wells or on coded carriers; various concentrations
Procedure: This example describes how multiplexed analysis using coded carriers may be used to study the cytotoxicity response of HRPTE cells to staurosporine, in accordance with aspects of the present teachings; see FIG. 7.
Specifically, HRPTE cells are grown directly attached to wells of a standard 96-well microplate, or on coded carriers that optionally may be placed in wells of the microplate. A “death index” (e.g., the fraction of observed cells that are dead) may be used as a measure of cytotoxicity. The death index may be computed using any suitable mechanism, such as a fluorescence-based “live/dead assay.” In an exemplary version of the assay, live cells are labeled green using a membrane-permeant calcein AM, which is cleaved by esterases in live cells to yield cytoplasmic green fluorescence, and dead cells are labeled red using a membrane-impermeant ethidium homodimer-1, which passes through the compromised membranes of dead cells to label nucleic acids with red fluorescence. […] This reduction may be particularly significant in assays on primary cells, because primary cells typically are difficult to obtain and maintain.

## COc1ccc2c(c1)c(CC(=O)O)c(C)n2C(=O)c1ccc(Cl)cc1 [Indomethacin, indomethacin]
PPARγ
  induction of PEPCK expression as a measure of PPARγ activity: relatively strong induction

## CC[C@@]1(O)C(=O)OCc2c1cc1n(c2=O)Cc2cc3ccccc3nc2-1 [camptothecin]
[1]
  S-phase index as a measure of cell proliferation: S-phase index generally decreases with increasing camptothecin concentration

## CN[C@@H]1C[C@H]2O[C@@](C)([C@@H]1OC)n1c3ccccc3c3c4c(c5c6ccccc6n2c5c31)C(=O)NC4 [staurosporine]
HRPTE cells
  death index (fraction of dead cells): generally increases with increasing staurosporine concentration
